Data on 22 molecules can be found in USRE46856E1, “Substituted 2,3-dihydroimidazo[1,2-c]quinazoline derivatives useful for treating hyper-proliferative disorders and diseases associated with angiogenesis” (Bayer Intellectual Property GmbH, priority 2006, dated 2018).

Each structure is given as a SMILES string. Where a name gives a salt, the structure may show the parent alone.

T2 sequence (P42338 109-1070): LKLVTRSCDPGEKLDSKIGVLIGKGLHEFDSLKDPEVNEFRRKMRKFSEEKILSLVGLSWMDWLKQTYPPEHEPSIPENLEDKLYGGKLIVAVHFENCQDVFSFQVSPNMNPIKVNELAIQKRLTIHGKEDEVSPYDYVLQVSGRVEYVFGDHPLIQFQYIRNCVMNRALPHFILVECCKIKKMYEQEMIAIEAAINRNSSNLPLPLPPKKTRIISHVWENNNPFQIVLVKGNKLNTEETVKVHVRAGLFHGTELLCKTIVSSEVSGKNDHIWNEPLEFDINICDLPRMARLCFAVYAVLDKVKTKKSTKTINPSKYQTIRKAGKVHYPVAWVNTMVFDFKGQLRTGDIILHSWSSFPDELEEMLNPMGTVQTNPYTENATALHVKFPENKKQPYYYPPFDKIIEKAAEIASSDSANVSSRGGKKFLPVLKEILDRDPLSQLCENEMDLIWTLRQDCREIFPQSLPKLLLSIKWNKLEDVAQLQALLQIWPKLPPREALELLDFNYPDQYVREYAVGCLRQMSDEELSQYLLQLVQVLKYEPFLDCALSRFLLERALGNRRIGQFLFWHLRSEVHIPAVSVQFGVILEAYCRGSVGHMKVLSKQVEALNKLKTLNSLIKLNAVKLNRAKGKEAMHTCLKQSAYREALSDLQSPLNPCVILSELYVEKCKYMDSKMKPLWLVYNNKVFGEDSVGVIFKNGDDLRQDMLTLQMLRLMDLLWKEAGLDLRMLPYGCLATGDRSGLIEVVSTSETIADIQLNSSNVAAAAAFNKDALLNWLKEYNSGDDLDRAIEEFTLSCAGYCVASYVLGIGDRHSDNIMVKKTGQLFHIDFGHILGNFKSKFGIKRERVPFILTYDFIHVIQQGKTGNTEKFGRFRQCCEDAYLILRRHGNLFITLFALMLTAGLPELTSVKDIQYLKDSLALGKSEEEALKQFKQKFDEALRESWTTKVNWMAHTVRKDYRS

One experiment deals with T1, PI3Kα (Homo sapiens, UniProt P42336).
T1 construct: His6 (N); made in house; host or cells: S. frugiperda 9 (Sf9) insect cells
T1 sequence (P42336 109-1068): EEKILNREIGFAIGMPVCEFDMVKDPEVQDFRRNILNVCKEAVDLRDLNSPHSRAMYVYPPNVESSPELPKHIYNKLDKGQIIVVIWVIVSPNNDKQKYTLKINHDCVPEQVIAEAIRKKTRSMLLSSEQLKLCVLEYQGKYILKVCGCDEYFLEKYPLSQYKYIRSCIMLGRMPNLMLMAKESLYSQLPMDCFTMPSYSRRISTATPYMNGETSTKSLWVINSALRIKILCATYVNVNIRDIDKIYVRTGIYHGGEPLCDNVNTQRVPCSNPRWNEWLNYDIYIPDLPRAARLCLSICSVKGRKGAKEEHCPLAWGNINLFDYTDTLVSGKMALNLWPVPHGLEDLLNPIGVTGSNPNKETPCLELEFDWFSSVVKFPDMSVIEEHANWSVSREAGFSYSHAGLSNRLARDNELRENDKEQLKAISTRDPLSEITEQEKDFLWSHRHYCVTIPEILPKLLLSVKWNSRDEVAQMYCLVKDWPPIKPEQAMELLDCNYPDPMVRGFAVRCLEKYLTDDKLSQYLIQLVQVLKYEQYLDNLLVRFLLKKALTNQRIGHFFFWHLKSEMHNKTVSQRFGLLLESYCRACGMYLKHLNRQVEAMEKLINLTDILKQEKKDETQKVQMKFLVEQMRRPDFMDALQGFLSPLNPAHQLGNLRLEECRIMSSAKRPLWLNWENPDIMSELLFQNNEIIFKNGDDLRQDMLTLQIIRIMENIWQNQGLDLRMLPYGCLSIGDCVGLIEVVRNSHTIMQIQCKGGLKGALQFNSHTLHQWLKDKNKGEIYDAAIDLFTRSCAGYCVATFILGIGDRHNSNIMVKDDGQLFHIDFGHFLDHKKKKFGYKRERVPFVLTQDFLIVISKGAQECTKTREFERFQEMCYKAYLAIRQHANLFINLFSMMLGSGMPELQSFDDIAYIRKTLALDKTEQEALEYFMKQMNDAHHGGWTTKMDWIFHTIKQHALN
Kind of experiment: Solid-phase lipid kinase assay of PI3Kα (p110α assay). The conditions noted are these: recombinant truncated human p110α, 10 μM ATP. In kind it is biochemical. From the text: [Determination of IC50 Values of Compounds in Kinase Assay of PI3Kα]
LABORATORIES (Toronto, Canada). […] [γ^33P]ATP and unlabeled ATP were purchased from […] […] BIOTECH (Buckinghamshire, UK) and ROCHE DIAGNOSTICS (Mannheim, Germany), respectively. Scintillation cocktails and MicroScint PS™ were purchased from PACKARD (Meriden, Conn.). Maxisorp™ plates were purchased from NALGE NUNC INTERNATIONAL K.K. (Tokyo, Japan). All other chemicals not further specified were from WAKO PURE CHEMICALS (Osaka, Japan).
The plates were subsequently air-dried by incubation for at least 2 hours in a fume hood. The reaction was set up by mixing 25 μL/well of assay buffer 2×(100 mM MOPSO/NaOH, 0.2 M NaCl, pH 7.0, 8 mM MgCl2, 2 mg/mL BSA (fatty acid-free)), and 7.5 ng/well PI3Kα in the lipid pre-coated plate. 100× test compounds were added in 2% DMSO. The reaction was started by adding 20 μL/well of ATP mix (final 10 μM ATP; 0.05 μCi/well [γ^33P]ATP). After incubation at RT for 2 hours, the reaction was terminated by adding 50 μl/well stop solution (50 mM EDTA, pH 8.0). The plate was then washed twice with Tris-buffered saline (TBS, pH 7.4). MicroScint PS™ (PACKARD) scintillation mix was added at 100 μL/well, and radioactivity was counted using a TopCount™ (PACKARD) scintillation counter.
The inhibition percent at each concentration of compound was calculated, and IC50 values were determined from the inhibition of curve.
Turning to `COc1c(OCCCN(C)C)ccc2c1N=C(NC(=O)c1ccc[n+]([O-])c1)N1CCN=C21` [Example 12, N-{8-[3-(dimethylamino)propoxy]-7-methoxy-2,3-dihydroimidazo[1,2-c]quinazolin-5-yl}nicotinamide 1-oxide], the IC50 (commonly the concentration that inhibits the measured activity by half) is greater than 100 nM. Same read-out and setting: under `COc1c(OCCCN2CCOC[C@@H]2C)ccc2c1N=C(NC(=O)c1cccnc1)N1CCN=C21` [Example 17, N-{7-methoxy-8-[3-(3-methylmorpholin-4-yl)propoxy]-2,3-dihydroimidazo[1,2-c]quinazolin-5-yl}nicotinamide] stands 10 to 100 nM. `COc1c(OCCCN2CCOCC2)ccc2c1N=C(NC(=O)c1cnc(N3CCOCC3)nc1)N1CCN=C21` [Example 49, N-[7-methoxy-8-(3-morpholin-4-ylpropoxy)-2,3-dihydroimidazo[1,2-c]quinazolin-5-yl]-2-morpholin-4-ylpyrimidine-5-carboxamide]: the IC50 fell in the range of 10 to 100 nM.

The next experiment concerns the target T2, PI3Kβ (Homo sapiens, UniProt P42338).
T2 construct: His6 (N); made in house; host or cells: S. frugiperda 9 (Sf9) insect cells
Kind of experiment: Isozyme selectivity test: kinase assay of PI3Kβ (p110β assay). To be noted: recombinant truncated p110β, 7.5 ng protein/well. In kind it is biochemical. From the text: [Isozyme Selectivity Test in PI3K]
Determination of IC50 Values of Compounds in Kinase Assays of PI3Kβ and PI3Kγ
`COc1c(OCCCN(C)C)ccc2c1N=C(NC(=O)c1ccc[n+]([O-])c1)N1CCN=C21` [Example 12, N-{8-[3-(dimethylamino)propoxy]-7-methoxy-2,3-dihydroimidazo[1,2-c]quinazolin-5-yl}nicotinamide 1-oxide]: the IC50 is greater than 100 nM. As to `COc1c(OCCCN2CCOC[C@@H]2C)ccc2c1N=C(NC(=O)c1cccnc1)N1CCN=C21` [Example 17, N-{7-methoxy-8-[3-(3-methylmorpholin-4-yl)propoxy]-2,3-dihydroimidazo[1,2-c]quinazolin-5-yl}nicotinamide], the half-maximal inhibitory concentration (IC50) was in the range of 10 to 100 nM. The same measure, in the same setting: under `COc1c(OCCCN2CCOCC2)ccc2c1N=C(NC(=O)c1cnc(N3CCOCC3)nc1)N1CCN=C21` [Example 49, N-[7-methoxy-8-(3-morpholin-4-ylpropoxy)-2,3-dihydroimidazo[1,2-c]quinazolin-5-yl]-2-morpholin-4-ylpyrimidine-5-carboxamide] stands 10 to 100 nM.

A further experiment relates to IGF-1 induced AKT phosphorylation in A549 cells. Kind of experiment: IGF-1 induced AKT phosphorylation assay (A549 cell assay). Type of experiment: cell-based. To be noted: Homo sapiens; A549 cells, 25 ng/ml IGF-1, phospho-AKT(Ser 473); read-out: average IC50 in the A549 cell assay. From the text: [Determination of IC50 Values of Compounds in Cell Based Assays of PI3K Activity] 96-well collagen treated clear bottom/black sided Costar plates were purchased from CORNING LIFE SCIENCES (Corning, N.Y.; at.#3904). Gibco RPMI medium (Cat.#11875), Biosource anti-phospho-AKT([…]) antibody (Cat.#44-621G) and recombinant IGF-1 (Cat.#PHG0074) were purchased from INVITROGEN (Carlsbad, Calif.). The secondary donkey anti-rabbit IgG horse radish peroxidase conjugate (Cat. #N[…]) and ECL chemiluminesence reagent (Cat.#RPN2209) were purchased from […] (Buckinghamshire, UK). Cell culture tested bovine serum albumin solution (35% in DPBS; Cat.#A7979) and all other chemicals were purchased from SIGMA (St. Louis, Mo.). The Wallac Victor2 1420 Multilabel HTS Counter was purchased from […] (Wellesley, Mass.) […] All wells (except no IGF-1 controls) were then treated with 25 ng/ml IGF-1 for 10 minutes at 37° C. in a 5% CO2 incubator. Following removal of the supernatants and washing with the wells with TBS (50 mM Tris pH 8.0 containing 138 mM NaCL and 27 mM KCl), 200 µL of 3.7% formaldehyde in TBS was added to each well, and the plate was incubated at 4° C. for 10 minutes. Supernatants were once again removed and replaced with 50 μL Methanol (-20° C.) and the plate incubated at 4° C. for 5 minutes. 200 μL of 0.1% BSA in TBS was then added to each well and the plate incubated at room temperature for 1⁄2 hour. Supernatants were removed and 50 μL of a solution comprising the primary anti-phospho-AKT([…]) antibody diluted 1:250 in TBS containing 0.1% BSA was added to each well (except control/background wells). The plate was then incubated for 11⁄2 hour at room temperature. Supernatants were removed, each well was washed 3 times with 200 μL TBS, and 100 μL of a solution containing the secondary donkey anti-rabbit IgG antibody HRP-conjugate diluted 1:100 in TBS-T (TBS containing 0.1% triton). Plates were then incubated for 1 hour at room temperature. After removing the secondary antibody, each well was washed 6 times with cold TBS-T, 100 μL of ECL was added to each well, and the plate was placed on an orbital shaker for 1 minute. The plates were then read on a Wallac Victor2 1420 Multilabel HTS Counter using the luminometry window (maximum light detection is measured at […]). IC50 values were determined from the inhibition curve.
Consider `COc1c(OCCCN(C)C)ccc2c1N=C(NC(=O)c1ccc[n+]([O-])c1)N1CCN=C21` [Example 12, N-{8-[3-(dimethylamino)propoxy]-7-methoxy-2,3-dihydroimidazo[1,2-c]quinazolin-5-yl}nicotinamide 1-oxide], for which the concentration for half-maximal inhibition (IC50) was greater than 1000 nM. On the same count and under the same terms, the same measure for `COc1c(OCCN)ccc2c1N=C(NC(=O)c1cccnc1)N1CCN=C21` [Example 82, N-[8-(2-aminoethoxy)-7-methoxy-2,3-dihydroimidazo[1,2-c]quinazolin-5-yl]nicotinamide]: 100 to 1000 nM; for `COc1c(OCCCN2CCOCC2)ccc2c1N=C(NC(=O)c1ccc(N)nc1)N1CCN=C21` [Example 83, 6-amino-N-[7-methoxy-8-(3-morpholin-4-ylpropoxy)-2,3-dihydroimidazo[1,2-c]quinazolin-5-yl]nicotinamide]: less than 100 nM; for `COc1c(OCCCN2CCOCC2)ccc2c1N=C(NC(=O)c1ccncc1)N1CCN=C21` [Example 84, N-[7-methoxy-8-(3-morpholin-4-ylpropoxy)-2,3-dihydroimidazo[1,2-c]quinazolin-5-yl]isonicotinamide]: 100 to 1000 nM. On the same count and under the same terms, under `CCN(CC)CCCOc1ccc2c(c1OC)N=C(NC(=O)c1cccnc1)N1CCN=C21` [Example 85, N-{8-[3-(diethylamino)propoxy]-7-methoxy-2,3-dihydroimidazo[1,2-c]quinazolin-5-yl}nicotinamide] stands less than 100 nM. Same read-out and setting: the same measure for `COc1c(OCCN(C(C)C)C(C)C)ccc2c1N=C(NC(=O)c1cccnc1)N1CCN=C21` [Example 86, N-{8-[2-(diisopropylamino)ethoxy]-7-methoxy-2,3-dihydroimidazo[1,2-c]quinazolin-5-yl}nicotinamide]: 100 to 1000 nM. With `CCN(CC)CCOc1ccc2c(c1OC)N=C(NC(=O)c1cccnc1)N1CCN=C21` [Example 87, N-{8-[2-(diethylamino)ethoxy]-7-methoxy-2,3-dihydroimidazo[1,2-c]quinazolin-5-yl}nicotinamide], the IC50 lay in the range of 100 to 1000 nM. On the same count and under the same terms, under `COc1c(OCCCN(C)C)ccc2c1N=C(NC(=O)c1cccnc1)N1CCN=C21` [Example 88, N-{8-[3-(dimethylamino)propoxy]-7-methoxy-2,3-dihydroimidazo[1,2-c]quinazolin-5-yl}nicotinamide] stands 100 to 1000 nM; under `COc1c(OCCN(C)C)ccc2c1N=C(NC(=O)c1cccnc1)N1CCN=C21` [Example 89, N-{8-[2-(dimethylamino)ethoxy]-7-methoxy-2,3-dihydroimidazo[1,2-c]quinazolin-5-yl}nicotinamide], 100 to 1000 nM; under `CNc1ncc(C(=O)NC2=Nc3c(ccc(OCCCN4CCOCC4)c3OC)C3=NCCN23)cn1` [Example 90, N-[7-methoxy-8-(3-morpholin-4-ylpropoxy)-2,3-dihydroimidazo[1,2-c]quinazolin-5-yl]-2-(methylamino)pyrimidine-5-carboxamide], less than 100 nM. Still for that read-out and setting: the same measure for `COc1c(OCCCN2CCOCC2)ccc2c1N=C(NC(=O)c1cnc(SC)nc1)N1CCN=C21` [Example 91, N-[7-methoxy-8-(3-morpholin-4-ylpropoxy)-2,3-dihydroimidazo[1,2-c]quinazolin-5-yl]-2-(methylthio)pyrimidine-5-carboxamide]: less than 100 nM; for `COc1c(OCCCN)ccc2c1N=C(NC(=O)c1cccnc1)N1CCN=C21` [Example 92, N-[8-(3-aminopropoxy)-7-methoxy-2,3-dihydroimidazo[1,2-c]quinazolin-5-yl]nicotinamide trifluoroacetate]: greater than 1000 nM; for `COc1c(OCCCN2CCOCC2)ccc2c1N=C(NC(=O)c1sc(C)nc1C)N1CCN=C21` [Example 94, N-[7-methoxy-8-(3-morpholin-4-ylpropoxy)-2,3-dihydroimidazo[1,2-c]quinazolin-5-yl]-2,4-dimethyl-1,3-thiazole-5-carboxamide]: less than 100 nM. Consider `COc1ncc(C(=O)NC2=Nc3c(ccc(OCCCN4CCOCC4)c3OC)C3=NCCN23)cn1` [Example 95, 2-methoxy-N-[7-methoxy-8-(3-morpholin-4-ylpropoxy)-2,3-dihydroimidazo[1,2-c]quinazolin-5-yl]pyrimidine-5-carboxamide], for which the IC50 was less than 100 nM. The same measure, in the same setting: under `COc1c(OCCCN2CCOCC2)ccc2c1N=C(NC(=O)c1ccoc1)N1CCN=C21` [Example 96, N-[7-methoxy-8-(3-morpholin-4-ylpropoxy)-2,3-dihydroimidazo[1,2-c]quinazolin-5-yl]-3-furamide] stands 100 to 1000 nM.

As for `COc1c(OCCCN2CCOCC2)ccc2c1N=C(NC(=O)c1ccsc1)N1CCN=C21` [Example 97, N-[7-methoxy-8-(3-morpholin-4-ylpropoxy)-2,3-dihydroimidazo[1,2-c]quinazolin-5-yl]thiophene-3-carboxamide], the IC50 is 100 to 1000 nM. Regarding `COc1ccc(C(=O)NC2=Nc3c(ccc(OCCCN4CCOCC4)c3OC)C3=NCCN23)cn1` [Example 99, 6-methoxy-N-[7-methoxy-8-(3-morpholin-4-ylpropoxy)-2,3-dihydroimidazo[1,2-c]quinazolin-5-yl]nicotinamide], the IC50 is less than 100 nM. With `COc1cncc(C(=O)NC2=Nc3c(ccc(OCCCN4CCOCC4)c3OC)C3=NCCN23)c1` [Example 100, 5-methoxy-N-[7-methoxy-8-(3-morpholin-4-ylpropoxy)-2,3-dihydroimidazo[1,2-c]quinazolin-5-yl]nicotinamide], the IC50 fell in the range of 100 to 1000 nM. Turning to `COc1c(OCCCN2CCOCC2)ccc2c1N=C(NC(=O)c1ccc(C)nc1)N1CCN=C21` [Example 101, N-[7-methoxy-8-(3-morpholin-4-ylpropoxy)-2,3-dihydroimidazo[1,2-c]quinazolin-5-yl]-6-methylnicotinamide], the IC50 is less than 100 nM.

Turning to `COc1c(OCCCN2CCOCC2)ccc2c1N=C(NC(=O)c1cccnc1)N1CCN=C21` [Example 103, N-[7-methoxy-8-(3-morpholin-4-ylpropoxy)-2,3-dihydroimidazo[1,2-c]quinazolin-5-yl]nicotinamide], the IC50 is less than 100 nM.
